Measurements published in patent US20060183909A1, “Compositions derived from quinoline and quinoxaline, preparation and use thereof” (priority 2001, published 2006).

Tested on: xanthurenic acid receptor
Assay: Screening: displacement of [3H]-XA binding to synaptic membranes at a fixed concentration
Details: not given
Method: If this concentration produces the same or greater displacement than the same concentration of non-radiolabelled XA, then an IC50 is determined. […] The incubation time is 25 min. […] The filters are placed in scintillation vials to which 5 ml of Rotiszint® (Roth) are added and the vials are counted in a Beckman LS6000sc liquid scintillation counter. Specific binding is given as the difference between total binding and nonspecific binding. The percentage inhibition of binding that the synthetic compounds produce is calculated for each compound in relation to its positive control.

In the case of O=C(O)c1cc(=O)c2ccccc2[nH]1 [Kynurenic acid, reference compound], the “effect on xanthurenic acid binding, in words” value (“effect” for short) is reported as “increase the binding of xanthurenic acid”.
For O=C(O)c1cc(O)c2cccc(Br)c2n1 [Compound 3x, 4-hydroxy-8-bromo-quinoline-2-carboxylic acid], the “effect” value was “increase the binding of xanthurenic acid”.
Cl.NCCCc1cc(O)c2nc(C(=O)O)cc(O)c2c1 [Compound 22c, 4,8-dihydroxy-6-(3-amino-propyl)-quinoline-2-carboxylic acid hydrochloride] was tested, and the “effect” value was “increase the binding of xanthurenic acid”.

Same assay, conditions: compound at 10 μM; 200 nM [3H]-XA, synaptic membranes

O=C(O)c1cc(=O)c2ccccc2[nH]1 [Kynurenic acid, reference compound] was tested, and the “real increase in total binding (potentiation)” value (shortened to “real increase in total binding”) was “(+70% real increase”.
With O=C(O)c1cc(O)c2cccc(Br)c2n1 [Compound 3x, 4-hydroxy-8-bromo-quinoline-2-carboxylic acid] the “real increase in total binding” value was “(+200% real increase”.
With Cl.NCCCc1cc(O)c2nc(C(=O)O)cc(O)c2c1 [Compound 22c, 4,8-dihydroxy-6-(3-amino-propyl)-quinoline-2-carboxylic acid hydrochloride] the “real increase in total binding” value was “(+100% real increase”.

Same assay, conditions: compound at 10 μM; 200 nM [3H]-XA, synaptic membranes; xanthurenic acid set arbitrarily to 100%

In order of rising “% inhibition of XA binding at 10 μM*” value:
1. CC(C)(C)C(=O)Nc1cccc2c(O)cc(C(=O)O)nc12 [Compound 28b, 8-pivaloylamino-4-hydroxy-quinoline-2-carboxylic acid]  0%
2. Nc1cccc2ccc(C(=O)O)nc12 [Compound 4f, 8-amino-quinoline-2-carboxylic acid]  0%
3. CC(=O)Nc1cccc2c(O)cc(C(=O)O)nc12 [Compound 28a, 8-acetylamino-4-hydroxy-quinoline-2-carboxylic acid]  0%
4. COc1ccc(Br)c2ccc(C(=O)O)nc12 [Compound 4g, 8-methoxy-5-bromo-quinoline-2-carboxylic acid]  0%
5. O=C(O)c1cc(O)c2cc(CNCc3ccccc3)cc(O)c2n1 [Compound 26a, 4,8-dihydroxy-6-(benzylamino-methyl)-quinoline-2-carboxylic acid]  0%
6. CNc1cccc2c(O)cc(C(=O)O)nc12.Cl [Compound 103b, 4-hydroxy-8-(methyl)amino-quinoline-2-carboxylic acid hydrochloride]  3%
7. Cl.Nc1ccc(N2CCCCC2)c2c(O)cc(C(=O)O)nc12 [Compound 77c, 5-(piperidin-1-yl)-8-amino-4-hydroxy-quinoline-2-carboxylic acid hydrochloride]  6%
8. COc1cccc2ccc(C(=O)O)nc12  13%
9. N#Cc1cc(-c2ccccc2)cc2c(O)cc(C(=O)O)nc12 [Compound 64b, 8-cyano-4-hydroxy-6-phenyl-quinoline-2-carboxylic acid]  14%
10. Cl.Nc1cccc2c(CCCO)cc(C(=O)O)nc12 [Compound 96c, 8-amino-4-(3-hydroxy-prop-1-yl)-quinoline-2-carboxylic acid hydrochloride]  17%
11. N#Cc1cc(CCc2ccccc2)cc2c(O)cc(C(=O)O)nc12 [Compound 65d, 8-cyano-4-hydroxy-6-phenethyl-quinoline-2-carboxylic acid]  18%
12. Cc1cc(O)c2nc(C(=O)O)cc(O)c2c1 [Compound 3n, 4,8-dihydroxy-6-methyl-quinoline-2-carboxylic acid]  21.2%
13. CCc1cc(C#N)c2nc(C(=O)O)cc(O)c2c1 [Compound 69d, 8-cyano-6-ethyl-4-hydroxy-quinoline-2-carboxylic acid]  26%
14. Nc1ccc(CCCO)c2c(O)cc(C(=O)O)nc12 [Compound 75c, 5-hydroxypropyl-8-amino-4-hydroxy quinoline-2-carboxylic acid]  31%
15. CN(C)c1cccc2c(O)cc(C(=O)O)nc12 [Compound 41d, 8-dimethylamino-4-hydroxy-quinoline-2-carboxylic acid]  43%
16. N#Cc1cc(Br)cc2c(O)cc(C(=O)O)nc12 [Compound 63c, 6-bromo-8-cyano-4-hydroxy-quinoline-2-carboxylic acid]  46%
17. Cc1ccc(O)c2nc(C(=O)O)cc(O)c12 [Compound 3e, 4,8-dihydroxy-5-methyl-4-quinoline-2-carboxylic acid]  48%
18. O=C(Nc1cccc2c(O)cc(C(=O)O)nc12)c1ccccc1 [Compound 28c, 8-benzoylamino-4-hydroxy-quinoline-2-carboxylic acid]  48.5%
19. O=C(O)c1cc(O)c2cc(CCc3ccccc3)cc(O)c2n1 [Compound 22a, 4,8-dihydroxy-6-phenethyl-quinoline-2-carboxylic acid]  54%
20. COc1ccc(-c2cc(O)c3nc(C(=O)O)cc(O)c3c2)cc1 [Compound 19g, 4,8-dihydroxy-6-(4-methoxy-phenyl)-quinoline-2-carboxylic acid]  54.5%
21. Cl.NCCCc1cc(C(=O)O)nc2c(N)cccc12 [Compound 95c, 8-amino-4-(3-amino-prop-1-yl)-quinoline-2-carboxylic acid hydrochloride]  57%
22. CCCc1cc(O)c2nc(C(=O)O)cc(O)c2c1 [Compound 19r, 4,8-dihydroxy-6-propyl-quinoline-2-carboxylic acid]  58.1%
23. Cl.O=C(O)c1cc(O)c2cccc(N3CCNCC3)c2n1 [Compound 108b, 4-hydroxy-8-(piperazin-1-yl)-quinoline-2-carboxylic acid hydrochloride]  62%
24. Nc1ccc(-c2ccccc2)c2c(O)cc(C(=O)O)nc12 [Compound 73c, 5-phenyl-8-amino-4-hydroxy-quinoline-2-carboxylic acid]  69%
25. O=C(O)CC1Nc2c(O)cccc2NC1=O (stereo not shown) [Compound 60c, [8-(hydroxy)-3-oxo-3,4-dihydroquinoxaline-2(1H)-yl]acetic acid]  69%
26. CNc1cc(C(=O)O)nc2c(N)cccc12.Cl [Compound 38d, 4-(N-methylamino)-8-amino-quinoline-2-carboxylic acid hydrochloride]  72%
27. NC(=O)c1cccc2c(O)cc(C(=O)O)nc12 [Compound 37c, 8-carboxamide-4-hydroxy-quinoline-2-carboxylate acid]  77%
28. O=C(O)c1nc2c(O)cccc2c(O)c1CN1CCOCC1 [Compound 39b, 3-(N-morpholinomethyl)-4,8-dihydroxy-quinoline-2-carboxylic acid]  77%
29. O=C(O)c1nc2c(OCc3ccccc3)cccc2c(O)c1CN1CCCC1 [Compound 40a, 3-(N-pyrrolidinomethyl)-8-benzyloxy-4-hydroxy-quinoline-2-carboxylic acid]  83%
30. O=C(O)c1cc(O)c2c(CO)ccc(O)c2n1 [Compound 3g, 4,8-dihydroxy-5-hydroxymethyl-4-quinoline-2-carboxylic acid]  84%
31. O=C(O)c1cc(-c2ccccc2)c2cccc(O)c2n1 [Compound 10b, 8-hydroxy-4-phenyl-quinoline-2-carboxylic acid]  94.5%
32. O=C(O)c1nc2c(O)cccc2[nH]c1=O [Compound 59c, 8-hydroxy-3-oxo-3,4-dihydroquinoxaline-2-carboxylic acid]  97%
33. Nc1cc(Cl)cc2c(O)cc(C(=O)O)nc12 [Compound 117d, 6-chloro-8-amino-4-hydroxy-quinoline-2-carboxylic acid]  97%
34. Cl.O=C(O)c1cc(O)c2cc(C3CCCCN3)cc(O)c2n1 (stereo not shown) [Compound 61b, 4,8-dihydroxy-6-piperidin-2-yl-quinoline-2-carboxylic acid hydrochloride]  97%
35. O=C(O)c1cc(O)c2cccc(CCc3ccccc3)c2n1 [Compound 111c, 4-hydroxy-8-phenylethyl-quinoline-2-carboxylic acid]  109%
36. O=C(O)c1nc2c(O)c(Br)ccc2c(O)c1Br [Compound 56c, 3,7-dibromo-4,8-dihydroxy-quinoline-2-carboxylic acid]  112%
37. Cl.Nc1cc(N)c2nc(C(=O)O)cc(O)c2c1 [Compound 32d, 6,8-diamino-4-hydroxy-quinoline-2-carboxylic acid hydrochloride]  117%
38. O=C(O)c1cc(O)c2cccc(OCc3ccccc3)c2n1 [Compound 3y, 4-hydroxy-8-benzyloxy-quinoline-2-carboxylic acid]  120%
39. NCCCc1cc(N)c2nc(C(=O)O)cc(O)c2c1 [Compound 121c, 6-(3′-aminopropyl)-8-amino-4-hydroxy-quinoline-2-carboxylic acid]  120%
40. Cl.O=C(O)c1cc(N2CCCCC2)c2cccc(O)c2n1 [Compound 100c, 8-hydroxy-4-(piperidin-1-yl)-quinoline-2-carboxylic acid hydrochloride]  137%
41. CN1CCN(c2cc(C(=O)O)nc3c(O)cccc23)CC1.Cl [Compound 110c, 8-hydroxy-4-(4-methyl-piperazin-1-yl)-quinoline-2-carboxylic acid hydrochloride]  166%
42. Cl.O=C(O)c1cc(N2CCNCC2)c2cccc(O)c2n1 [Compound 87c, 8-hydroxy-4-(piperazin-1-yl)-quinoline-2-carboxylic acid hydrochloride]  183%

O=C(O)c1cc(=O)c2ccccc2[nH]1 [Kynurenic acid, reference compound] was tested, and the “% inhibition of XA binding at 10 μM*” value was “Potentiation”.
For O=C(O)c1cc(O)c2cccc(Br)c2n1 [Compound 3x, 4-hydroxy-8-bromo-quinoline-2-carboxylic acid], the “% inhibition of XA binding at 10 μM*” value was “Potentiation”.
For Cl.NCCCc1cc(O)c2nc(C(=O)O)cc(O)c2c1 [Compound 22c, 4,8-dihydroxy-6-(3-amino-propyl)-quinoline-2-carboxylic acid hydrochloride], the “% inhibition of XA binding at 10 μM*” value was “Potentiation”.

Same assay, conditions: compound at 50 μM; 200 nM [3H]-XA, synaptic membranes; xanthurenic acid set arbitrarily to 100%

Cc1ccc(S(=O)(=O)Nc2cc(C(=O)O)nc3c(O)cccc23)cc1 [Compound 16a, 8-hydroxy-4-(toluene-4-sulfonylamino)-quinoline-2-carboxylic acid] was tested, and the “% inhibition of XA binding at 50 μM*” value was 77%.
